# Structures can show the parent of a compound that is named as a salt.
# Columns and labels:
# [1] = test system: Xanthomonas strain Xcv 135; assay: Biofilm inhibition, crystal violet biofilm attachment assay on PVC microtiter wells; assay type: cell-based; conditions: biofilm formation, starting OD600 0.55, 28° C., 6 hours, static
# Method: Activity Testing. A standard crystal violet reporter assay is employed to assess the effect of compounds on the formation of biofilms. Among others, the following strains are tested:
# Bacteria are allowed to form biofilms in a multi-well plate in the absence or presence of one or more compounds. Planktonic (or free growing) bacteria are then removed, wells washed vigorously, and crystal violet added. Crystal violet stains the remaining bacteria which, following ethanol solubilization, is quantitated by spectrophotometry (A540). Time-dependent and concentration-dependent analysis of each compound are performed.
# Activity testing of imidazole library members on Xanthomonas. Biofilm formation on PVC microtiter wells was accomplished using Xanthomonas strains Xcv 135 (known to infect peppers and tomatoes) and Xcv 5 (known to infect tomatoes but not peppers) as models. The Starting Optical Density (OD at 600 nm) for biofilm attachment assay was 0.55, the temperature for this assay was 28° C., the duration of incubation was 6 hours under, and the assay was static.
# Biofilm inhibition results are as follows for screens with Xcv 135. The Xcv 5 strain is tested in the same manner.
# [2] = test system: marine α-proteobacterium R. salexigens; conditions: documented in literature (Yamada et al. 1997); cited from earlier work
# calcium channels = conditions: known from literature (Bickmeyer, Toxicon 2005); cited from earlier work
SMILES,% Inhibition at 20 μM (vs. Xcv 135) [1],anti-biofouling properties: biofilm development in R. salexigens [2],activity of calcium channels (calcium channels)
NC[C@@H]1Cc2nc(N)[nH]c2C[C@H]1CN (racemic) [Formula (II)(a)(±)],0%,–,–
Nc1nc2c([nH]1)C[C@@H](CNC(=O)c1cc(Br)c[nH]1)[C@H](CNC(=O)c1cc(Br)c[nH]1)C2 (racemic) [Formula (II)(b)(v)(trans)(±)],0%,–,–
Nc1nc2c([nH]1)C[C@@H](CNC(=O)c1cc(Br)c(Br)[nH]1)[C@H](CNC(=O)c1cc(Br)c(Br)[nH]1)C2 (racemic) [Formula (II)(b)(vi)(trans)(±)],71%,–,–
Nc1nc([C@@H]2c3[nH]c(N)nc3C[C@H](CNC(=O)c3cc(Br)c[nH]3)[C@H]2CNC(=O)c2cc(Br)c(Br)[nH]2)c[nH]1 [bromoageliferin],–,inhibiting biofilm development,modulate the activity of calcium channels
"Nc1ncc(/C=C/CNC(=O)c2cc(Br)c(Br)[nH]2)[nH]1 [oroidin, oroidin hydrochloride]",–,inhibiting biofilm development,–

# — patent US8618149B2, “Inhibition of biofilms in plants with imidazole derivatives” (North Carolina State University, priority 2007, dated 2013)
